# Assay results reported in BindingDB's records for doi:10.7270/Q2N301S8 (D3R/Abbott, 2020).
# Biological target: Beta-secretase 1 (Homo sapiens, UniProt P56817)
# Test: D3R2027
# From the text: D3R2027
# Beta-secretase 1, sequence (P56817 whole entry): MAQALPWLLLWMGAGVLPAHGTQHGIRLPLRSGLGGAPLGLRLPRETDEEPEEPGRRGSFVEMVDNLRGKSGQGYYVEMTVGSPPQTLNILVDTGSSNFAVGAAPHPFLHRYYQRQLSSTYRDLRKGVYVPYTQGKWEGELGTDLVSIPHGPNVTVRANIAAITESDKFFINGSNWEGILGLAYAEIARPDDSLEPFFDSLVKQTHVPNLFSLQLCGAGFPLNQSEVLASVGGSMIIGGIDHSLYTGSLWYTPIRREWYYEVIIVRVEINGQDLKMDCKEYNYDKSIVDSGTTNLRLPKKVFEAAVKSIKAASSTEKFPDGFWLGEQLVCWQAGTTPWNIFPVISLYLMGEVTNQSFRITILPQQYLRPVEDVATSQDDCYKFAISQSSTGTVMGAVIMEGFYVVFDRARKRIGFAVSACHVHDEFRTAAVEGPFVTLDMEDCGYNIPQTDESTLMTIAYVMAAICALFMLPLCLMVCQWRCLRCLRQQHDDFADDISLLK
row,SMILES,IC50 [nM]
1,C[C@@H]1CC(=O)NCCCCOc2cccc(c2)C[C@@H]([C@H](O)CNCc2cccc(C(C)(C)C)c2)NC1=O [BACE_92],69
2,CCc1cc(CNC[C@@H](O)[C@@H]2Cc3cccc(c3)OCCCCOc3cc(cc(C(=O)N(C)C)c3)C(=O)N2)ncn1 [BACE_141],1700
3,CCCNc1cc(COC)cc(C(=O)N[C@@H](Cc2cccc(OC)c2)[C@H](O)CNCc2cccc(C(C)C)c2)c1 [BACE_146],3100
4,COCc1cc2cc(c1)C(=O)N[C@H]([C@H](O)CN)Cc1cccc(c1)OCCCCN2 [BACE_126],13000
5,CC(C)c1cccc(C(C)(C)NC[C@@H](O)[C@@H]2C[C@H](C)CCCCCCCNc3cccc(n3)C(=O)N2)c1 [BACE_70],2900
6,CC(C)c1cccc(CNC[C@@H](O)[C@@H]2Cc3cccc(c3)CCCCOc3cncc(c3)C(=O)N2)c1 [BACE_137],480
7,C[C@@H]1CCCCCCNC(=O)C[C@@H](C)C(=O)N[C@H]([C@H](O)CNCc2cccc(C(C)(C)C)c2)C1 [BACE_37],5900
8,CCCCNC(=O)[C@H](C)C[C@H](O)[C@@H]1Cc2cccc(c2)OCCCCCC(=O)N[C@@H](C)C(=O)N1 [BACE_153],690
9,CC(C)c1cccc(CNC[C@@H](O)[C@@H]2C[C@H](C)CC/C=C/CCCCC(=O)N(C)[C@@H](C)C(=O)N2)c1 [BACE_21],300
10,CC(C)c1cccc(CNC[C@@H](O)[C@@H]2C[C@H](C)CCCCC[C@H](C)CCC(=O)N(C)[C@@H](C)C(=O)N2)c1 [BACE_33],19
11,C[C@H]1C(=O)N[C@H]([C@H](O)CNC2(c3cccc(Br)c3)CC2)Cc2cccc(c2)OCCCCCC(=O)N1C [BACE_90],170
12,CCOc1cc(CNC[C@@H](O)[C@@H]2C[C@H](C)CCOCCCCNc3cccc(c3)C(=O)N2)cc(C(F)(F)F)c1 [BACE_73],6300
13,C[C@@H]1CCCCCCCNc2cccc(c2)C(=O)N[C@H]([C@H](O)CNCc2cc(C(C)(C)C)[nH]n2)C1 [BACE_58],1900
14,CC(C)c1cccc(CNC[C@@H](O)[C@@H]2C[C@H](C)CCCCCCCCC(=O)N(C)CC(=O)N2)c1 [BACE_32],360
15,CC(C)Cc1cncc(CNC[C@@H](O)[C@@H]2C[C@H](C)CC/C=C/CCCCC(=O)N(C)[C@@H](C)C(=O)N2)c1 [BACE_25],130
16,C[C@H]1C(=O)N[C@H]([C@H](O)CNCc2cncc(C3CC3)c2)Cc2cccc(c2)CCCCCCC(=O)N1C [BACE_87],1100

# Further lines, results first:
row,IC50 [nM],SMILES
1,9,CC(=O)c1cc2cc(c1)C(=O)N[C@H]([C@H](O)CNC1(c3cccc(C(C)C)c3)CC1)Cc1cccc(c1)OCCCCN2 [BACE_14]
2,25,COCc1cc2cc(c1)C(=O)N[C@H]([C@H](O)CNC(C)(C)c1cc(C(C)(C)C)ccn1)Cc1cccc(c1)OCCCCN2 [BACE_124]
3,5.5,COCc1cc2cc(n1)NCCCCOCC[C@@H](C)C[C@@H]([C@H](O)CNC1(c3cccc(C(C)(C)C)c3)CC1)NC2=O [BACE_47]
4,3600,CC(C)(NC[C@@H](O)[C@@H]1Cc2cccc(c2)CCCCNc2cc(c[n+](Cc3ccccc3)c2)C(=O)N1)c1cccc(Br)c1 [BACE_121]
5,1.5,CC(C)(C)c1ccnc(C2(NC[C@@H](O)[C@@H]3Cc4cccc(c4)CCCCNc4cc(cc(-c5ncco5)c4)C(=O)N3)CC2)c1 [BACE_119]
6,120,CC(C)c1cccc(C(C)(C)NC[C@@H](O)[C@@H]2Cc3cc(F)c(N)c(c3)CCCCNc3cccc(c3)C(=O)N2)c1 [BACE_116]
7,250,CC(C)c1cccc(CNC[C@@H](O)[C@@H]2Cc3cccc(c3)CCCCOc3cc(cc(-c4ncco4)c3)C(=O)N2)c1 [BACE_132]
8,290,CC(C)c1cccc(C(C)(C)NC[C@@H](O)[C@@H]2Cc3cccc(c3)CCCCNc3cccc(c3)C(=O)N2)c1 [BACE_115]
9,41,CN(C)C(=O)c1cc2cc(c1)C(=O)N[C@H]([C@H](O)CNC1(c3cccc(C(C)(C)C)c3)CC1)Cc1ccc(F)c(c1)OC/C=C\CN2 [BACE_131]
10,33,COCc1cc2cc(c1)C(=O)N[C@H]([C@H](O)CNC1(c3cccc(C(C)(C)C)c3)COC1)C[C@H](C)CCCCCCCN2 [BACE_60]
